# Data published in publication PMC9452538, “The antimicrobial peptide LI14 combats multidrug-resistant bacterial infections” (Communications Biology, 2022).
# Where two headings read alike, the source gives them in different places. Peptide text beside a SMILES is read from it.
# Legend:
# MRSA T144 = assay: microbe, parasite or virus in culture; type: cell-based, Staphylococcus aureus; conditions: T144
# Procedure, shortened: (§1)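 Standard CLSI broth microdilution (2021 guidelines) in MHB with exponential-phase inoculum.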
# S. aureus ATCC 29213 = assay: microbe, parasite or virus in culture; type: cell-based, Staphylococcus aureus; conditions: ATCC 29213
# Procedure, shortened: as §1
# E. faecium 5F-10 = assay: microbe, parasite or virus in culture; type: cell-based, Enterococcus faecium; conditions: 5F-10
# Experimental: (§2) An antimicrobial activity study was conducted on all peptides against a panel of laboratory bacteria, including ATCC source and clinical isolates with resistance determinants. According to CLSI2021 guidelines, we tested the minimum inhibitory concentrations (MICs) of peptides using standard broth micro-dilutions. Briefly, bacteria grown to exponential phase were diluted in 1:1000 to MHB, subsequently, equivalent amounts of bacterial suspension (1.5 × 10^6 CFUs/mL) were mixed with different concentrations of peptides in a sterilized 96-well microtiter plate (Corning).
# P. aeruginosa PA14 = assay: microbe, parasite or virus in culture; type: cell-based, Pseudomonas aeruginosa; conditions: PA14
# Experimental: as §2
# [1] = test system: K. pneumoniae ATCC 700603; assay: microbe, parasite or virus in culture; type: cell-based, Klebsiella pneumoniae; conditions: ATCC 700603
# Experimental: as §2
# [2] = test system: K. pneumoniae D120 (mcr-8); assay: microbe, parasite or virus in culture; type: cell-based, Klebsiella pneumoniae; conditions: D120 (mcr-8)
# Experimental: as §2
# E. coli B2 [3] = type: cell-based, Escherichia coli; conditions: E. coli B2
# Experimental: MRSA T144 and E. coli B2 in the exponential growth phase were incubated with LI14 peptide supplemented with 10 mM Na^+, K^+, Mg^2+, 10% Dulbecco’s modified Eagle medium (DMEM), and 10% fetal bovine serum (FBS) for 16–18 h. The stability of LI14 was evaluated by the change of its antibacterial activity under different conditions.
# LI14 were preincubated for 1 h at various temperatures (40–121 °C), pH (2–12), and proteases (pepsin, trypsin, and papain, final concentration 1 mg/mL). […] Following the incubation with the proteases, the leftover protease was precipitated with acetonitrile and removed by centrifugation at 3000 × g, followed by a MIC test.
# Supplementary Table 4 Thermal, pH, salts and protease stability of AMPs against
# MRSA T144 and E. coli B2 (MIC, μg/mL).
# Treatment MRSA T144 E. coli B2
# [4] = test system: S. aureus ATCC 29213, MRSA T144, E. coli ATCC 25922, E. coli B2; assay: Time-killing assay; type: cell-based; conditions: MHB
# Experimental: Bacteria from the exponential phase were diluted into MHB at 1:1,000, and bacteria suspensions (~10^5 CFUs/mL for Gram-positive bacteria, ~10^6 CFUs/mL for Gram-negative bacteria) were mixed with various concentrations of LI14 peptide and incubated at 37 °C for 0.5, 1, 2, 4, and 12 h, respectively. At intervals, samples were serially diluted ten-fold and plated on MHA plates. The amount of primary CFUs/mL was determined after overnight incubation of bacterial colonies.
# [5] = test system: MRSA T144 and E. coli B2 established biofilms; assay: Treatment of established biofilms; type: cell-based; conditions: 128 μg/mL LI14, 2 h
# Experimental: In MHB medium, a mid-logarithmic growth-phase culture was diluted to 10^6 CFUs/ml. A 96-well flat bottom plate was filled with 100 μL of this bacterial suspension per well, which was cultured at 37 °C for 36 h to create mature biofilms. […] Plates were sonicated for 10 min after incubation to remove adhering bacteria, and the number of live bacteria was counted microbiologically.
# E. coli B2 [6] = assay: Galleria mellonella infection model; type: in vivo; conditions: E. coli B2 infected G. mellonella; 50 mg/kg of LI14 at 1 h after infection; 7 days; n = 8
# Experimental: Galleria mellonella larvae (supplied by Huiyude Biotech Company, Tianjin, China) were separated into six groups (n = 8 biologically independent animals per group) and infection models by injecting MRSA T144 and E. coli B2 cultures, respectively (10 µL, 1.0 × 10^5 CFUs per larvae) into the right posterior gastropoda[42],[48]. The infected larvae were treated by giving LI14 peptide (10, 20, 50 mg/kg), ampicillin/rifampicin (10 mg/kg) or a mixture of LI14 with ampicillin/rifampicin (10 + 10 mg/kg) in the left posterior gastropoda after 1 h infection, with the PBS injection group serving as a control treatment. Within 7 days, survival rates of Galleria mellonella larvae were inspected and recorded.
# MRSA T144 or E. coli B2 = assay: Rat skin wound infection model; type: in vivo, rats; conditions: MRSA T144 or E. coli B2 infected skin wound; LI14 5 or 10 μg topically; 8 days; n = 4
# Experimental: The rats (n = 4 biologically independent animals per group) were anesthetized and a 2 cm wound model was constructed on their back. Then, 100 μL of MRSA T144 or E. coli B2 cultures were dropped on the wounds (10^6 CFUs per mouse), respectively. At 1 h post-infection, 100 μL of LI14 peptide (5 or 10 μg), or the combination of LI14 peptide with ampicillin/rifampicin (5 + 5 μg) were gently inoculated over the scar with a pipette tip, respectively. Wound size was recorded for 8 days, and on the 8th day, the rats were euthanized, and wound tissue was removed aseptically to measure CFUs and for following hematoxylin and eosin (H&E) staining.
# (a-d) Mouse skin wound infection models by MRSA T144 (n = 4 biologically independent animals per group). a Photographs of wounds treated with LI14 (5 μg and 10 μg) or in combination with ampicillin (5 + 5 μg) for 0, 4 and 8 days (scale bar, 1 cm). (b) The wound size at 0th, 4th and 8th day after infection by MRSA T144. (c) The subeschar bacterial colonies at 8th day. (d) H.E. staining for the histological change of skin wound at 8th day (scale bar, […]
# (e-h) Mouse skin wound infection models by E. coli B2 (n = 4 biologically independent animals per group). (e) Photographs of wounds treated with LI14 (5 μg and 10 μg) or in combination with rifampicin for (5 + 5 μg) for 0, 4 and 8 days (scale bar, 1 cm). […]
smiles,measurement,setting,value
CC[C@H](C)[C@H](NC(=O)[C@H](CCCNC(=N)N)NC(=O)[C@H](CS)NC(=O)[C@H](CC(C)C)NC(=O)[C@H](CCCCN)NC(=O)[C@H](CCCCN)NC(=O)[C@H](CC(C)C)NC(=O)[C@@H](NC(=O)[C@H](CCCNC(=N)N)NC(=O)[C@H](CS)NC(=O)[C@H](CC(C)C)NC(=O)[C@H](CCCCN)NC(=O)[C@H](CCCCN)NC(=O)[C@@H](N)CC(C)C)[C@@H](C)CC)C(N)=O [LI14] (H-LKKLCRILKKLCRI-NH2),MIC,MRSA T144,4 µg/mL
same,MIC,S. aureus ATCC 29213,8 µg/mL
same,MIC,E. faecium 5F-10,64 µg/mL
same,MIC,P. aeruginosa PA14,16 µg/mL
same,MIC,[1],32 µg/mL
same,MIC,[2],32 µg/mL
same,MIC,E. coli B2 [3]; Control,4 µg/mL
same,MIC,E. coli B2 [3]; KCl 10 mM,4 µg/mL
same,MIC,E. coli B2 [3]; NaCl 10 mM,4 µg/mL
same,MIC,"E. coli B2 [3]; Serum (10%), fetal bovine serum",4 µg/mL
same,MIC,E. coli B2 [3]; peptide preincubated 1 h at 40℃,4 µg/mL
same,MIC,E. coli B2 [3]; peptide preincubated 1 h at 60℃,4 µg/mL
same,MIC,E. coli B2 [3]; peptide preincubated 1 h at 80℃,4 µg/mL
same,MIC,E. coli B2 [3]; peptide preincubated 1 h at 121℃,4 µg/mL
same,MIC,"E. coli B2 [3]; peptide preincubated 1 h at pH 2, readjusted to pH 7.2",4 µg/mL
same,MIC,"E. coli B2 [3]; peptide preincubated 1 h at pH 4, readjusted to pH 7.2",4 µg/mL
same,MIC,"E. coli B2 [3]; peptide preincubated 1 h at pH 6, readjusted to pH 7.2",4 µg/mL
same,MIC,"E. coli B2 [3]; peptide preincubated 1 h at pH 8, readjusted to pH 7.2",4 µg/mL
same,MIC,"E. coli B2 [3]; peptide preincubated 1 h at pH 10, readjusted to pH 7.2",4 µg/mL
same,MIC,"E. coli B2 [3]; peptide preincubated 1 h at pH 12, readjusted to pH 7.2",4 µg/mL
same,Killing of the tested strains at 12 h,"[4]; 8 μg/mL LI14, three tested strains, except for MRSA T144",completely eliminate
same,Time to eliminate all E. coli strains,"[4]; 32 μg/mL LI14, ~10^6 CFUs/mL, 37 °C",≤ 0.5 h
same,Eradication of established biofilms,[5],almost eradicated all established biofilms
same,Survival rate of larvae,E. coli B2 [6],75%
same,Wound closure and number of colonies,MRSA T144 or E. coli B2,distinctly improved wound closure and decreased the number of colonies
